Source: BindingDB's records for doi:10.1021/jm00022a011 (Upjohn Laboratories, 1995)

test system: HIV-I infected H9 cells (antiviral activity); experiment: Antiviral activity against HIV-I infected H9 cells

First: CCNC(=O)Nc1cccc(C(c2c(O)c3c(oc2=O)CCCCCC3)C2CC2)c1 (configuration not stated) [1-{3-[Cyclopropyl-(4-hydroxy-2-oxo-5,6,7,8,9,10-hexahydro-2H-cycloocta[b]pyran-3-yl)-methyl]-phenyl}-3-ethyl-urea]
Second: CCCC(=O)Nc1cccc(C(c2c(O)c3c(oc2=O)CCCCCC3)C2CC2)c1 (configuration not stated) [N-{3-[Cyclopropyl-(4-hydroxy-2-oxo-5,6,7,8,9,10-hexahydro-2H-cycloocta[b]pyran-3-yl)-methyl]-phenyl}-butyramide]
The IC50 of the first is higher: over 60 µM for the first, 35.1 µM for the second.

O=C(Nc1ccccc1)Nc1cccc(C(c2c(O)c3c(oc2=O)CCCCCC3)C2CC2)c1 (configuration not stated) [1-{3-[Cyclopropyl-(4-hydroxy-2-oxo-5,6,7,8,9,10-hexahydro-2H-cycloocta[b]pyran-3-yl)-methyl]-phenyl}-3-phenyl-urea] and O=C(Nc1cccc(C(c2c(O)c3c(oc2=O)CCCCCC3)C2CC2)c1)c1ccccc1 (configuration not stated) [N-{3-[Cyclopropyl-(4-hydroxy-2-oxo-5,6,7,8,9,10-hexahydro-2H-cycloocta[b]pyran-3-yl)-methyl]-phenyl}-benzamide] are within 1.5-fold of each other in IC50: 21.7 µM for the first, 23.5 µM for the second.

Compared with CCCC1CCCCCCc2c1oc(=O)c(C(c1ccccc1)C1CC1)c2O (configuration not stated) [3-(Cyclopropyl-phenyl-methyl)-4-hydroxy-11-propyl-6,7,8,9,10,11-hexahydro-5H-cyclonona[b]pyran-2-one], O=C(Cc1ccccc1)Nc1cccc(C(c2c(O)c3c(oc2=O)CCCCCC3)C2CC2)c1 (configuration not stated) [N-{3-[Cyclopropyl-(4-hydroxy-2-oxo-5,6,7,8,9,10-hexahydro-2H-cycloocta[b]pyran-3-yl)-methyl]-phenyl}-2-phenyl-acetamide] is 3.3-fold higher in IC50: 5.3 µM for the first, 17.3 µM for the second.

CC(C)(C)OC(=O)NCCC(=O)Nc1cccc(C(c2c(O)c3c(oc2=O)CCCCCC3)C2CC2)c1 (configuration not stated) [(2-{3-[Cyclopropyl-(4-hydroxy-2-oxo-5,6,7,8,9,10-hexahydro-2H-cycloocta[b]pyran-3-yl)-methyl]-phenylcarbamoyl}-ethyl)-carbamic acid tert-butyl ester] and CC(C)(C)OC(=O)NCCCC(=O)Nc1cccc(C(c2c(O)c3c(oc2=O)CCCCCC3)C2CC2)c1 (configuration not stated) [(3-{3-[Cyclopropyl-(4-hydroxy-2-oxo-5,6,7,8,9,10-hexahydro-2H-cycloocta[b]pyran-3-yl)-methyl]-phenylcarbamoyl}-propyl)-carbamic acid tert-butyl ester] are within 1.5-fold of each other in IC50: 33.4 µM for the first, 49.5 µM for the second.

Going from C[C@@H](NC(=O)OC(C)(C)C)C(=O)Nc1cccc(C(c2c(O)c3c(oc2=O)CCCCCC3)C2CC2)c1 (stereo partly drawn) [((R)-1-{3-[Cyclopropyl-(4-hydroxy-2-oxo-5,6,7,8,9,10-hexahydro-2H-cycloocta[b]pyran-3-yl)-methyl]-phenylcarbamoyl}-ethyl)-carbamic acid tert-butyl ester] to C[C@H](NC(=O)OC(C)(C)C)C(=O)Nc1cccc(C(c2c(O)c3c(oc2=O)CCCCCC3)C2CC2)c1 (stereo partly drawn) [((S)-1-{3-[Cyclopropyl-(4-hydroxy-2-oxo-5,6,7,8,9,10-hexahydro-2H-cycloocta[b]pyran-3-yl)-methyl]-phenylcarbamoyl}-ethyl)-carbamic acid tert-butyl ester], the IC50 falls from over 60 µM to 31.8 µM. The second is the more potent here.

O=C(C=Cc1ccccc1)Nc1cccc(C(c2c(O)c3c(oc2=O)CCCCCC3)C2CC2)c1 (configuration not stated) [(E)-N-{3-[Cyclopropyl-(4-hydroxy-2-oxo-5,6,7,8,9,10-hexahydro-2H-cycloocta[b]pyran-3-yl)-methyl]-phenyl}-3-phenyl-acrylamide] and O=C(Nc1cccc(C(c2c(O)c3c(oc2=O)CCCCCC3)C2CC2)c1)c1ccc(F)cc1 (configuration not stated) [N-{3-[Cyclopropyl-(4-hydroxy-2-oxo-5,6,7,8,9,10-hexahydro-2H-cycloocta[b]pyran-3-yl)-methyl]-phenyl}-4-fluoro-benzamide] are within 1.5-fold of each other in IC50: 17.1 µM for the first, 21.9 µM for the second.

CC(C)(C)OC(=O)N1CCC[C@H]1C(=O)Nc1cccc(C(c2c(O)c3c(oc2=O)CCCCCC3)C2CC2)c1 (stereo partly drawn) [(S)-2-{3-[Cyclopropyl-(4-hydroxy-2-oxo-5,6,7,8,9,10-hexahydro-2H-cycloocta[b]pyran-3-yl)-methyl]-phenylcarbamoyl}-pyrrolidine-1-carboxylic acid tert-butyl ester] and CC(C)(C)OC(=O)NCC(=O)Nc1cccc(C(c2c(O)c3c(oc2=O)CCCCCC3)C2CC2)c1 (configuration not stated) [({3-[Cyclopropyl-(4-hydroxy-2-oxo-5,6,7,8,9,10-hexahydro-2H-cycloocta[b]pyran-3-yl)-methyl]-phenylcarbamoyl}-methyl)-carbamic acid tert-butyl ester] are within 1.5-fold of each other in IC50: 29.2 µM for the first, 29.8 µM for the second.

CC(C)(C)OC(=O)N[C@@H](Cc1cnc[nH]1)C(=O)Nc1cccc(C(c2c(O)c3c(oc2=O)CCCCCC3)C2CC2)c1 (stereo partly drawn) [[(S)-1-{3-[Cyclopropyl-(4-hydroxy-2-oxo-5,6,7,8,9,10-hexahydro-2H-cycloocta[b]pyran-3-yl)-methyl]-phenylcarbamoyl}-2-(1H-imidazol-4-yl)-ethyl]-carbamic acid tert-butyl ester] showed an IC50 of 45.3 µM.

target: Human immunodeficiency virus type 1 protease (Human immunodeficiency virus 1, UniProt Q72874); experiment: Inhibitory activity against HIV-I protease.

In order of rising Ki:
1. O=c1oc2c(c(O)c1C(c1ccccc1)C1CC1)CCCCCC2CC1CC1 (configuration not stated) [10-Cyclopropylmethyl-3-(cyclopropyl-phenyl-methyl)-4-hydroxy-5,6,7,8,9,10-hexahydro-cycloocta[b]pyran-2-one]  0.024 µM
2. O=c1oc2c(c(O)c1C(c1ccccc1)C1CC1)CCCCCCC2CC1CC1 (configuration not stated) [11-Cyclopropylmethyl-3-(cyclopropyl-phenyl-methyl)-4-hydroxy-6,7,8,9,10,11-hexahydro-5H-cyclonona[b]pyran-2-one]  0.024 µM
